Data published in PubChem BioAssay AID200 (DTP/NCI, 2004).
“And” between values parts separate entries of the source, which are not always exact repeats. Equal entries are not always repeated. Inconclusive results and toxic doses are left out.

System: B6C3F1 mice, B16 melanoma ip, median survival T/C
Assay: NCI In Vivo Anticancer Drug Screen. Data for tumor model B16 Melanoma (intraperitoneal) in B6C3F1 mice
Conditions: endpoint: median survival time, higher = longer survival
Outline: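 Mice bearing transplanted tumor were dosed with compound or vehicle, and survival was recorded. Activity is expressed as the treated-group measurement (T) divided by the vehicle control measurement (C).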

[1] = dose: 25.0 mg/kg/injection, schedule: Q01DX009 (ip), vehicle: saline with Tween-80
[2] = dose: 50.0 mg/kg/injection, schedule: Q01DX009 (ip), vehicle: saline with Tween-80
[3] = dose: 100.0 mg/kg/injection, schedule: Q01DX009 (ip), vehicle: saline with Tween-80

## COc1cccc2c1C(=O)c1c(O)c3c(c(O)c1C2=O)C[C@H](O)C[C@@H]3OC1CC(N)C(O)C(C)O1 (stereo partly drawn)
dose: 0.75 mg/kg/injection, schedule: Q01DX009 (ip), vehicle: saline
  T/C: 150 % of control
dose: 0.75 mg/kg/injection, schedule: Q01DX009 (ip), vehicle: water
  T/C: 159 % of control
dose: 1.5 mg/kg/injection, schedule: Q01DX009 (ip), vehicle: saline
  T/C: 184 % of control
dose: 1.5 mg/kg/injection, schedule: Q01DX009 (ip), vehicle: water
  T/C: 164 % of control
dose: 3.0 mg/kg/injection, schedule: Q01DX009 (ip), vehicle: saline
  T/C: 175 % of control
dose: 3.0 mg/kg/injection, schedule: Q01DX009 (ip), vehicle: water
  T/C: 192 % of control
dose: 6.0 mg/kg/injection, schedule: Q01DX009 (ip), vehicle: saline
  T/C: 260 % of control
dose: 6.0 mg/kg/injection, schedule: Q01DX009 (ip), vehicle: water
  T/C: 215 % of control
dose: 12.0 mg/kg/injection, schedule: Q01DX009 (ip), vehicle: saline
  T/C: 346 % of control
dose: 12.0 mg/kg/injection, schedule: Q01DX009 (ip), vehicle: water
  T/C: 320 % of control
dose: 24.0 mg/kg/injection, schedule: Q01DX009 (ip), vehicle: saline
  T/C: 183 % of control

## c1ccc(P(CCNCCP(c2ccccc2)c2ccccc2)c2ccccc2)cc1
[1]
  T/C: 113 % of control
[2]
  T/C: 105 % of control
[3]
  T/C: 116 % of control

## COc1cccc2c1C(=O)c1c(O)c3c(c(O)c1C2=O)C[C@@](O)(C(=O)CO)C[C@@H]3OC1CC(N(C)C)C(O)C(C)O1 (stereo partly drawn)
dose: 0.12 mg/kg/injection, schedule: Q01DX009 (ip), vehicle: saline
  T/C: 100 % of control
dose: 0.5 mg/kg/injection, schedule: Q01DX009 (ip), vehicle: saline
  T/C: 152 % of control and 166 % of control
dose: 1.0 mg/kg/injection, schedule: Q01DX009 (ip), vehicle: saline
  T/C: 153 % of control and 205 % of control
dose: 2.0 mg/kg/injection, schedule: Q01DX009 (ip), vehicle: saline
  T/C: 172 % of control and 261 % of control

## OC1OC2COC(c3ccccc3)OC2C(O)C1O (stereo not drawn)
dose: 25.0 mg/kg/injection, schedule: Q01DX009 (ip), vehicle: water
  T/C: 103 % of control
dose: 50.0 mg/kg/injection, schedule: Q01DX009 (ip), vehicle: water
  T/C: 96 % of control
dose: 100.0 mg/kg/injection, schedule: Q01DX009 (ip), vehicle: water
  T/C: 110 % of control
dose: 200.0 mg/kg/injection, schedule: Q01DX009 (ip), vehicle: water
  T/C: 98 % of control
dose: 400.0 mg/kg/injection, schedule: Q01DX009 (ip), vehicle: water
  T/C: 94 % of control
dose: 800.0 mg/kg/injection, schedule: Q01DX009 (ip), vehicle: water
  T/C: 93 % of control

## Cc1cc2nc3[nH]c4ccccc4c3nc2cc1C
dose: 12.5 mg/kg/injection, schedule: Q01DX008 (ip), vehicle: saline
  T/C: 91 % of control
dose: 25.0 mg/kg/injection, schedule: Q01DX008 (ip), vehicle: saline
  T/C: 90 % of control
dose: 50.0 mg/kg/injection, schedule: Q01DX008 (ip), vehicle: saline
  T/C: 101 % of control
dose: 100.0 mg/kg/injection, schedule: Q01DX008 (ip), vehicle: saline
  T/C: 91 % of control
dose: 200.0 mg/kg/injection, schedule: Q01DX008 (ip), vehicle: saline
  T/C: 86 % of control
dose: 400.0 mg/kg/injection, schedule: Q01DX008 (ip), vehicle: saline
  T/C: 88 % of control

## COC(=O)C12OCC34C(CC5C(C)=CC(=O)C(O)C5(C)C3C(O)C1O)OC(=O)C(OC(=O)CC(C)C)C24 (stereo not drawn)
dose: 0.25 mg/kg/injection, schedule: Q01DX009 (ip), vehicle: saline + alcohol
  T/C: 164 % of control
dose: 0.5 mg/kg/injection, schedule: Q01DX009 (ip), vehicle: saline + alcohol
  T/C: 180 % of control
dose: 1.0 mg/kg/injection, schedule: Q01DX009 (ip), vehicle: saline + alcohol
  T/C: 164 % of control
dose: 2.0 mg/kg/injection, schedule: Q01DX009 (ip), vehicle: saline + alcohol
  T/C: 159 % of control

## COC1C(CO)OC(n2c3c(Cl)cccc3c3c4c(c5c6cccc(Cl)c6[nH]c5c32)C(=O)NC4=O)C(O)C1O (stereo not drawn)
dose: 25.0 mg/kg/injection, schedule: Q01DX009 (ip), vehicle: distilled water + Tween-80
  T/C: 150 % of control
dose: 100.0 mg/kg/injection, schedule: Q01DX009 (ip), vehicle: distilled water + Tween-80
  T/C: 172 % of control and 173 % of control
dose: 200.0 mg/kg/injection, schedule: Q01DX009 (ip), vehicle: distilled water + Tween-80
  T/C: 161 % of control

## Cc1ccc(S(=O)(=O)NC(=O)OC23COCN2COC3)cc1
dose: 12.5 mg/kg/injection, schedule: Q01DX009 (ip), vehicle: saline with Tween-80
  T/C: 112 % of control and 113 % of control
[1]
  T/C: 108 % of control and 106 % of control
[2]
  T/C: 118 % of control
[3]
  T/C: 104 % of control
dose: 200.0 mg/kg/injection, schedule: Q01DX009 (ip), vehicle: saline with Tween-80
  T/C: 105 % of control
dose: 400.0 mg/kg/injection, schedule: Q01DX009 (ip), vehicle: saline with Tween-80
  T/C: 111 % of control and 122 % of control
